Like-named read-outs stand apart in the source and are kept apart here.
Legend:
OATP1B1/1B3 [1] = details: cited from earlier work
[2] = after 20 mg and 75 mg CysA doses
Renal clearance = type: in vivo, human
OATP1B1/1B3 [3] = type: in vivo, human
OATP1B1/1B3 [4] = details: ref 17 (pitavastatin), 19 (CP-I); cited from earlier work
[5] = +CysA 20 mg, 1 h before probe cocktail
[6] = otherwise (conditions other than rosuvastatin with 1-hour interval)

Compound	AUCR: AUC0-24 Geometric mean ratio +CysA/Control (90% CI) (OATP1B1/1B3 [3]; [5])	AUCR: AUC0-24 Geometric mean ratio +CysA/Control (90% CI) (OATP1B1/1B3 [3]; +CysA 75 mg (-1hr))	AUCR: AUC0-24 Geometric mean ratio +CysA/Control (90% CI) (OATP1B1/1B3 [3]; +CysA 75 mg (-3hr))	change of CLR by CysA (in words) (Renal clearance; [6])	hepatic extraction (PBPK model analysis) (OATP1B1/1B3 [4])	other results
CC[C@@H]1NC(=O)[C@H]([C@H](O)[C@H](C)C/C=C/CO)N(C)C(=O)[C@H](C(C)C)N(C)C(=O)[C@H](CC(C)C)N(C)C(=O)[C@H](CC(C)C)N(C)C(=O)[C@@H](C)NC(=O)[C@H](C)NC(=O)[C@H](CC(C)C)N(C)C(=O)[C@H](C(C)C)NC(=O)[C@H](CC(C)C)N(C)C(=O)CN(C)C1=O [AM1, Cyclosporin AM1]						inhibition of OATP1B1/1B3 (in words) (OATP1B1/1B3 [1]): inhibitor; Plasma concentrations relative to CysA (times lower) [2]: 10 times
CC1=C(CCC(=O)O)c2cc3nc(cc4[nH]c(cc5[nH]c(cc1n2)c(C)c5CCC(=O)O)c(CCC(=O)O)c4C)C(CCC(=O)O)=C3C.Cl.Cl [CP-III, Coproporphyrin III dihydrochloride]						reduction of CLR by CysA (Renal clearance; CysA 75 mg): 24%
O=C(O)C[C@H](O)C[C@H](O)/C=C/c1c(C2CC2)nc2ccccc2c1-c1ccc(F)cc1 [pitavastatin]	1.64	3.46	2.38		0.43	
CC(C)c1nc(N(C)S(C)(=O)=O)nc(-c2ccc(F)cc2)c1/C=C/[C@@H](O)C[C@@H](O)CC(=O)O [rosuvastatin]	1.39	2.16	1.81	no significant change		change of CLR by CysA (in words) (Renal clearance; CysA administered with a 1-hour interval): decreased
CCCCC(=O)N(Cc1ccc(-c2ccccc2-c2nnn[nH]2)cc1)[C@H](C(=O)O)C(C)C [valsartan]	1.43	1.77	1.85	no significant change		
coproporphyrin I [CP-I]					0.28	
